Source: US11180474B2 (BRISTOL-MYERS SQUIBB COMPANY, priority 2016, dated 2021)

Legend:
human TLR7 = target: T1, human TLR7 (Homo sapiens, UniProt Q9NYK1); assay: TLR7 inhibition reporter assay (HEK-Blue cells, SEAP reporter, gardiquimod stimulation); type: cell-based; details: HEK-Blue cells overexpressing human TLR7, gardiquimod 7.5 μM
T1 construct: host or cells: HEK-Blue cells
T1 sequence (Q9NYK1 27-1049): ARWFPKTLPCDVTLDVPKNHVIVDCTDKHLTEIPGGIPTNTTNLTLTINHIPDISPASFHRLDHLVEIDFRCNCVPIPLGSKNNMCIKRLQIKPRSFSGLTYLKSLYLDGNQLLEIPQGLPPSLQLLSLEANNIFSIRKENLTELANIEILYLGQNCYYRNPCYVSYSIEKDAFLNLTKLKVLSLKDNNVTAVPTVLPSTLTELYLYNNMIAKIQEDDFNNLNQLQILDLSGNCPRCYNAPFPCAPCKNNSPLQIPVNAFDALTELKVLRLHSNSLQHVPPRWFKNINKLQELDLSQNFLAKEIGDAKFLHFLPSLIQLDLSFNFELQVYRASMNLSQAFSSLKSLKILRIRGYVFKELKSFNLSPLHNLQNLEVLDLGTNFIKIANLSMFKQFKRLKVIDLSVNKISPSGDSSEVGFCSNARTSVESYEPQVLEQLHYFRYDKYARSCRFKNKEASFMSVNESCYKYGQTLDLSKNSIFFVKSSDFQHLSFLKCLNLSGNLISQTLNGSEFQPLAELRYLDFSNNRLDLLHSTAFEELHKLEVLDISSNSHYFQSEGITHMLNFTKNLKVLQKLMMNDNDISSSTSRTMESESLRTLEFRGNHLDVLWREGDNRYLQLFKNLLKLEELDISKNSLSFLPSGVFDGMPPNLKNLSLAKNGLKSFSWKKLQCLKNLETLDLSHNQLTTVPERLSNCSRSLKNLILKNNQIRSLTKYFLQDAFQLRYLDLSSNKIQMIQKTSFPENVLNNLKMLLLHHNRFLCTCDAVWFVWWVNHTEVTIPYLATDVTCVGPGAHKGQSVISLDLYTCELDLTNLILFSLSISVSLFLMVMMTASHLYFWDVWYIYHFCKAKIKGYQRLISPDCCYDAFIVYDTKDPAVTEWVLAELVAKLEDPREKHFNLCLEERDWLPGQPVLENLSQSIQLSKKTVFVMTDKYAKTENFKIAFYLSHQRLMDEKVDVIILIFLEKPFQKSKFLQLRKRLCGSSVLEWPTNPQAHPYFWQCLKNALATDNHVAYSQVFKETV
In short: (§1)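 HEK-Blue reporter cells (15,000/well TLR7, 20,000 TLR8) exposed to compound over 0.05 nM–50 μM, agonist-stimulated (R848 for TLR8, gardiquimod for TLR7), 22 h at 37 °C, 5% CO2. SEAP read with HEK-Blue Detection; % inhibition relative to agonist-plus-DMSO and known-inhibitor controls.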

human TLR8 = target: T2, human TLR8 (Homo sapiens, UniProt Q9NR97); assay: TLR8 inhibition reporter assay (HEK-Blue cells, SEAP reporter, R848 stimulation); type: cell-based; details: HEK-Blue cells overexpressing human TLR8, R848 15.9 μM
T2 construct: host or cells: HEK-Blue cells
T2 sequence (Q9NR97 27-1041): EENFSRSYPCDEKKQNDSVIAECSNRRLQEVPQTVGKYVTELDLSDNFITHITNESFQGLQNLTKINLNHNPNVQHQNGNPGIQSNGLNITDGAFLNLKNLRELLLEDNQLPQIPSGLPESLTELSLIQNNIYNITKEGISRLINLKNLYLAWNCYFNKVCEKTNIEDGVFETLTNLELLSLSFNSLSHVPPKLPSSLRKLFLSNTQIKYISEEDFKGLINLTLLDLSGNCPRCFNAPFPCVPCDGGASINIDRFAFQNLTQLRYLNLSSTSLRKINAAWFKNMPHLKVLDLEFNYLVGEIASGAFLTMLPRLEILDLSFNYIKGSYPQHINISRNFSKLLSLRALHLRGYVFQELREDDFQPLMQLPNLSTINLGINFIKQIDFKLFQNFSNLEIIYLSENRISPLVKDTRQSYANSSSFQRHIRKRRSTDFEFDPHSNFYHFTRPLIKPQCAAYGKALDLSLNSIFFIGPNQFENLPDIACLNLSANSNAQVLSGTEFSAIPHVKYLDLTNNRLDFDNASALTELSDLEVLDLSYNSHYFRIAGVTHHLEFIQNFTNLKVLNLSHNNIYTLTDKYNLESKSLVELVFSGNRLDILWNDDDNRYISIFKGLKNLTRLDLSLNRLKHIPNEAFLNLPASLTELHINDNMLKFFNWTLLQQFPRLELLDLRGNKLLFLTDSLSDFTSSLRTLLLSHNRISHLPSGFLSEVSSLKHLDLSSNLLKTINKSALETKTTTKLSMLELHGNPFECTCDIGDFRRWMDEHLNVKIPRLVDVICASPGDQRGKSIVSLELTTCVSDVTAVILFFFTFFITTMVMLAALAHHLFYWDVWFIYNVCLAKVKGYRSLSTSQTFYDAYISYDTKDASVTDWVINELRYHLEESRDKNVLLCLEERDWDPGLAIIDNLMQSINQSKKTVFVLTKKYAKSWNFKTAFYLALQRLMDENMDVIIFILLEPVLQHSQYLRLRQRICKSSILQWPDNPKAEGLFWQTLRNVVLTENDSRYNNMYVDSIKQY
In short: as §1

SMILES	IC50 (human TLR7) [nM]	IC50 (human TLR8) [nM]
COc1ccc(-c2[nH]c3ccc(C4CCN(C)CC4)cc3c2CC(F)(F)F)cc1OC [Example 355, 2-(3,4-dimethoxyphenyl)-5-(1-methylpiperidin-4-yl)-3-(2,2,2-trifluoroethyl)-1H-indole]	19	41
CCC(C)NC(=O)CN1CCC(c2ccc3[nH]c(-c4ccc(OC)c(OC)c4)c(CC(F)(F)F)c3c2)CC1 (stereo not shown) [Example 377, N-(sec-butyl)-2-(4-(2-(3,4-dimethoxyphenyl)-3-(2,2,2-trifluoroethyl)-1H-indol-5-yl)piperidin-1-yl)acetamide]	233	204
COc1ccc(-c2[nH]c3ccc(C4CCN(CC(=O)NCCCN(C)C)CC4)cc3c2CC(F)(F)F)cc1OC [Example 382, 2-(4-(2-(3,4-dimethoxyphenyl)-3-(2,2,2-trifluoroethyl)-1H-indol-5-yl)piperidin-1-yl)-N-(3-(dimethylamino)propyl)acetamide]	17	62
COc1ccc(-c2[nH]c3ccc(C4CCN(CC(=O)N5CCN(c6ccncc6)CC5)CC4)cc3c2CC(F)(F)F)cc1OC [Example 366, 2-(4-(2-(3,4-dimethoxyphenyl)-3-(2,2,2-trifluoroethyl)-1H-indol-5-yl)piperidin-1-yl)-1-(4-(pyridin-4-yl)piperazin-1-yl) ethan-1-one]	4	23
CCN1CCCC(N2CCC(c3ccc4[nH]c(-c5ccc(OC)c(OC)c5)c(C)c4c3)CC2)C1 (stereo not shown) [Example 24, 2-(3,4-dimethoxyphenyl)-5-(1′-ethyl-[1,3′-bipiperidin]-4-yl)-3-methyl-1H-indole]	≥ 50000	27900
COc1ccc(-c2[nH]c3ccc(C4CCN(C(=O)CCC(=O)N(C)C)CC4)cc3c2CC(F)(F)F)cc1OC [Example 346, 4-(4-(2-(3,4-dimethoxyphenyl)-3-(2,2,2-trifluoroethyl)-1H-indol-5-yl)piperidin-1-yl)-N,N-dimethyl-4-oxobutanamide]	213	529
COc1ccc(-c2[nH]c3ccc(C4CCN(CC(=O)N5CCC[C@@H]5CO)CC4)cc3c2CC(F)(F)F)cc1OC [Example 371, (R)-2-(4-(2-(3,4-dimethoxyphenyl)-3-(2,2,2-trifluoroethyl)-1H-indol-5-yl)piperidin-1-yl)-1-(2-(hydroxymethyl)pyrrolidin-1-yl)ethan-1-one]	79	52
COc1ccc(-c2[nH]c3ccc(C4CCN(CC(=O)NCCC5CCCN5C)CC4)cc3c2CC(F)(F)F)cc1OC (stereo not shown) [Example 360, 2-(4-(2-(3,4-dimethoxyphenyl)-3-(2,2,2-trifluoroethyl)-1H-indol-5-yl)piperidin-1-yl)-N-(2-(1-methylpyrrolidin-2-yl)ethyl) acetamide]	16	43
COc1ccc(-c2[nH]c3ccc(C4CCNCC4)cc3c2CC(F)(F)F)cc1OC [Example 329, 2-(3,4-dimethoxyphenyl)-5-(piperidin-4-yl)-3-(2,2,2-trifluoroethyl)-1H-indole]	15	19
COc1ccc(-c2[nH]c3ccc(C4CCN(CC(=O)N5CCN(C(C)=O)CC5)CC4)cc3c2CC(F)(F)F)cc1OC [Example 361, 1-(4-acetylpiperazin-1-yl)-2-(4-(2-(3,4-dimethoxyphenyl)-3-(2,2,2-trifluoroethyl)-1H-indol-5-yl)piperidin-1-yl)ethan-1-one]	100	109
COc1ccc(-c2[nH]c3ccc(C4CCN(CC(=O)N(C)C)CC4)cc3c2CC(F)F)cc1OC [Example 400, 2-(4-(3-(2,2-difluoroethyl)-2-(3,4-dimethoxyphenyl)-1H-indol-5-yl)piperidin-1-yl)-N,N-dimethylacetamide]	157	110
COc1ccc(-c2[nH]c3ccc(C4CCNCC4F)cc3c2C(C)C)cc1OC (racemic) [Example 319, 2-(3,4-dimethoxyphenyl)-5-(3-fluoropiperidin-4-yl)-3-isopropyl-1H-indole]	45	46
COc1ccc(-c2[nH]c3ccc(C4CCN(C(=O)C[C@@H](C)O)CC4)cc3c2CC(F)(F)F)cc1OC [Example 353, (R)-1-(4-(2-(3,4-dimethoxyphenyl)-3-(2,2,2-trifluoroethyl)-1H-indol-5-yl)piperidin-1-yl)-3-hydroxybutan-1-one]	229	964
COc1ccc(-c2[nH]c3ccc(C4CCN(C(=O)CCn5ccc6ccccc65)CC4)cc3c2CC(F)(F)F)cc1OC [Example 337, 1-(4-(2-(3,4-dimethoxyphenyl)-3-(2,2,2-trifluoroethyl)-1H-indol-5-yl)piperidin-1-yl)-3-(1H-indol-1-yl)propan-1-one]	3570	5080
COc1ccc(-c2[nH]c3ccc(C4CCN(CC(=O)Nc5cc(C(C)(C)C)[nH]n5)CC4)cc3c2CC(F)(F)F)cc1OC [Example 387, N-(5-(tert-butyl)-1H-pyrazol-3-yl)-2-(4-(2-(3,4-dimethoxyphenyl)-3-(2,2,2-trifluoroethyl)-1H-indol-5-yl)piperidin-1-yl)acetamide]	994	587
COc1ccc(-c2[nH]c3ccc(C4CCNCC4F)cc3c2C(C)C)cc1OC (racemic) [Example 320, 2-(3,4-dimethoxyphenyl)-5-(3-fluoropiperidin-4-yl)-3-isopropyl-1H-indole]	71	124
CCN(CCN(C)C)C(=O)CN1CCC(c2ccc3[nH]c(-c4ccc(OC)c(OC)c4)c(CC(F)(F)F)c3c2)CC1 [Example 372, 2-(4-(2-(3,4-dimethoxyphenyl)-3-(2,2,2-trifluoroethyl)-1H-indol-5-yl)piperidin-1-yl)-N-(2-(dimethylamino)ethyl)-N-ethylacetamide]	13	25
COc1ccc(-c2[nH]c3ccc(C4CCN(C(=O)CN(C)C)CC4)cc3c2CC(F)(F)F)cc1OC [Example 354, 1-(4-(2-(3,4-dimethoxyphenyl)-3-(2,2,2-trifluoroethyl)-1H-indol-5-yl)piperidin-1-yl)-2-(dimethylamino)ethan-1-one]	22	82
COc1ccc(-c2[nH]c3ccc(C4CCN(C(=O)CCn5cccc5)CC4)cc3c2CC(F)(F)F)cc1OC [Example 344, 1-(4-(2-(3,4-dimethoxyphenyl)-3-(2,2,2-trifluoroethyl)-1H-indol-5-yl)piperidin-1-yl)-3-(1H-pyrrol-1-yl)propan-1-one]	881	1420
COc1ccc(-c2[nH]c3ccc(C4CCN(C(=O)[C@@H]5CCCN5C(C)=O)CC4)cc3c2CC(F)(F)F)cc1OC [Example 336, (S)-1-(2-(4-(2-(3,4-dimethoxyphenyl)-3-(2,2,2-trifluoroethyl)-1H-indol-5-yl)piperidine-1-carbonyl)pyrrolidin-1-yl)ethan-1-one]	359	697
